Test results taken from ChEMBL document CHEMBL1201862, “PubChem BioAssay data set” (2004).
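Protocol summary: plate cells (96-well), add compound at 5 concentrations, incubate 48 h, interpolate endpoints linearly. The concentration for 50% growth inhibition is given as GI50.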 Activity calls are given as the source filed them. Rule as the data show it: active = GI50 up to about 1.1 µM and inactive = higher.

Columns and labels:
Test in all cases: NCI anticancer screen, dose series, 48 h
786-0 = tested on: 786-0
ACHN = tested on: ACHN
HCT-116 = tested on: HCT-116
HCT-15 = tested on: HCT-15
HL-60 = tested on: HL-60
IGROV-1 = tested on: IGROV-1
KM-20L2 = tested on: KM-20L2
LXFL 529 = tested on: LXFL 529
NCI-H460 = tested on: NCI-H460
OVCAR-8 = tested on: OVCAR-8
RXF 393 = tested on: RXF 393
SF-268 = tested on: SF-268
SF-295 = tested on: SF-295
SN12C = tested on: SN12C
SW-620 = tested on: SW-620
TK-10 = tested on: TK-10
U-251 = tested on: U-251
DU-145 = tested on: DU-145
HOP-92 = tested on: HOP-92
NCI/ADR-RES = tested on: NCI/ADR-RES

SMILES	GI50 (786-0)	GI50 (ACHN)	GI50 (HCT-116)	GI50 (HCT-15) [µM]	GI50 (HL-60)	GI50 (IGROV-1)	GI50 (KM-20L2)	GI50 (LXFL 529)	GI50 (NCI-H460)	GI50 (OVCAR-8)	GI50 (RXF 393)	GI50 (SF-268)	GI50 (SF-295)	GI50 (SN12C)	GI50 (SW-620)	GI50 (TK-10)	GI50 (U-251)	GI50 (DU-145)	GI50 (HOP-92)	GI50 (NCI/ADR-RES)
COc1cccc(C(=O)O)c1Cc1cccc2ccccc12	> 100 µM (inactive)	> 100 µM (inactive)	> 100 µM (inactive)	> 100	> 100 µM (inactive)	> 100 µM (inactive)	> 100 µM (inactive)	> 100 µM (inactive)	> 100 µM (inactive)	99.8 µM (inactive)	> 100 µM (inactive)	> 100 µM (inactive)	> 100 µM (inactive)	> 100 µM (inactive)	> 100 µM (inactive)	> 100 µM (inactive)	> 100 µM (inactive)	–	–	–
N=C(N)N/N=C/c1c[nH]c2ccccc12	> 100 µM (inactive)	> 100 µM (inactive)	–	> 100	> 100 µM (inactive)	> 100 µM (inactive)	> 100 µM (inactive)	> 100 µM (inactive)	> 100 µM (inactive)	> 100 µM (inactive)	> 100 µM (inactive)	> 100 µM (inactive)	> 100 µM (inactive)	> 100 µM (inactive)	> 100 µM (inactive)	> 100 µM (inactive)	> 100 µM (inactive)	–	–	–
CN(C)c1ccc(/C=C/C(=O)c2cc(C(C)(C)C)c(O)c(C(C)(C)C)c2)cc1	1.3 µM (inactive)	1.73 µM (inactive)	1.05 µM (active)	1.15	2.29 µM (inactive)	4.15 µM (inactive)	–	–	0.82 µM (active)	2.93 µM (inactive)	0.204 µM (active)	2.66 µM (inactive)	0.43 µM (active)	3.13 µM (inactive)	0.986 µM (active)	1.23 µM (inactive)	0.946 µM (active)	2 µM (inactive)	> 100 µM (inactive)	0.796 µM (active)
CN(C)c1ccc(C(C=C2c3ccccc3Sc3ccccc32)=C(C#N)C#N)cc1	92.3 µM (inactive)	37.5 µM (inactive)	> 100 µM (inactive)	> 100	> 100 µM (inactive)	> 100 µM (inactive)	89.1 µM (inactive)	86.7 µM (inactive)	68.9 µM (inactive)	94.8 µM (inactive)	29 µM (inactive)	> 100 µM (inactive)	87.7 µM (inactive)	> 100 µM (inactive)	> 100 µM (inactive)	> 100 µM (inactive)	37.6 µM (inactive)	–	–	–
CCOC(=O)/C(=C\c1ccccc1)C(=O)O	> 100 µM (inactive)	> 100 µM (inactive)	> 100 µM (inactive)	> 100	> 100 µM (inactive)	> 100 µM (inactive)	> 100 µM (inactive)	–	> 100 µM (inactive)	> 100 µM (inactive)	–	> 100 µM (inactive)	> 100 µM (inactive)	> 100 µM (inactive)	> 100 µM (inactive)	–	> 100 µM (inactive)	–	> 100 µM (inactive)	–
CC1=C[C@H]2c3c([nH]c4ccccc34)C(c3c[nH]c4ccccc34)[C@H]2CC1 (stereo partly specified)	3.88 µM (inactive)	10.2 µM (inactive)	3.27 µM (inactive)	5.41	4.94 µM (inactive)	7.96 µM (inactive)	–	4.29 µM (inactive)	2.84 µM (inactive)	8.59 µM (inactive)	1.74 µM (inactive)	–	–	3.75 µM (inactive)	6.37 µM (inactive)	14.5 µM (inactive)	4.55 µM (inactive)	–	0.536 µM (active)	–
CO[C@H](C(=O)O[C@H]1C(=O)N2CC[C@@H]3CCC[C@H]1C32C)c1ccccc1 (stereo partly specified)	> 100 µM (inactive)	> 100 µM (inactive)	> 100 µM (inactive)	> 10	> 100 µM (inactive)	> 100 µM (inactive)	> 100 µM (inactive)	> 100 µM (inactive)	> 100 µM (inactive)	> 100 µM (inactive)	> 100 µM (inactive)	> 100 µM (inactive)	> 100 µM (inactive)	> 100 µM (inactive)	> 100 µM (inactive)	–	> 100 µM (inactive)	–	–	–
Nc1cccc2c1C(=O)c1cccc(N)c1C2=O	> 100 µM (inactive)	> 100 µM (inactive)	> 100 µM (inactive)	> 100	–	> 100 µM (inactive)	> 100 µM (inactive)	> 100 µM (inactive)	> 100 µM (inactive)	> 100 µM (inactive)	46.3 µM (inactive)	> 100 µM (inactive)	–	> 100 µM (inactive)	> 100 µM (inactive)	> 100 µM (inactive)	> 100 µM (inactive)	–	> 100 µM (inactive)	–
Nc1n[n+]([O-])c2ccccc2[n+]1[O-] [TIRAPAZAMINE]	> 100 µM (inactive)	48.6 µM (inactive)	–	> 100	> 100 µM (inactive)	75.5 µM (inactive)	–	> 100 µM (inactive)	49.7 µM (inactive)	> 100 µM (inactive)	57.5 µM (inactive)	> 100 µM (inactive)	> 100 µM (inactive)	> 100 µM (inactive)	> 100 µM (inactive)	> 100 µM (inactive)	> 100 µM (inactive)	–	29.7 µM (inactive)	–
